Laboratory results reported in PubChem BioAssay (NCI).
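48-hour exposure; five concentrations; linearly interpolated endpoints. Here, GI50 denotes the concentration required for 50% inhibition of growth. TGI: concentration producing complete growth inhibition.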

Legend:
Assay in all cases: growth of human tumour cells (NCI), 48 h
[1] = tested on: HOP-62 NSCLC
[2] = tested on: CAKI-1 renal
[3] = tested on: HCT-116 colon
[4] = tested on: OVCAR-4 ovarian
[5] = tested on: ACHN renal
[6] = tested on: SW-620 colon
[7] = tested on: DU-145 prostate
[8] = tested on: OVCAR-8 ovarian
[9] = tested on: SK-MEL-28 melanoma
[10] = tested on: EKVX NSCLC

SMILES	GI50 [1] [µM]	TGI [1] [µM]	GI50 [2] [µM]	TGI [2] [µM]	GI50 [3] [µM]	TGI [3] [µM]	GI50 [4] [µM]	TGI [4] [µM]	GI50 [5] [µM]	TGI [5] [µM]	GI50 [6] [µM]	TGI [6] [µM]	GI50 [7] [µM]	TGI [7] [µM]	GI50 [8] [µM]	TGI [8] [µM]	GI50 [9] [µM]	TGI [9] [µM]	TGI [10] [µM]	GI50 [10] [µM]
CCN(Cc1ccc(F)cc1)c1ccc(CO)c(C(F)(F)F)c1	9.23	21.2	13.9	28.7	1.54	12.8	1.79	12.8	14.6	27.8	11.2	23.5	16.7	31.8	14.3	27.3	14.1	27.1		
Cc1ccc(NC(=O)/C(C#N)=C/c2ccccc2)c(C)c1		> 100		> 100		> 100		> 100		> 100		> 100				> 100		> 100	> 100	
CC(=O)Nc1ccc(S(=O)(=O)NN(C)S(=O)(=O)c2ccc(C)cc2)cc1		> 100		> 100		> 100		> 100		> 100		> 100				> 100		> 100	> 100	
O=C(Cc1ccccc1)C(c1ccccc1)S(=O)(=O)c1ccccc1 (centres undefined)		> 100		> 100		> 100		> 100		> 100		> 100				> 100		> 100	> 100	
CC(=O)OCC(CC[CH2][Sn]([Cl])([Cl])[c]1ccccc1)OC(C)=O (centres undefined)	23.9	46.8	14.6	30.9	18	31.9	16.4	31.4	23.9	42.6	16.7	30.3			17.5	32.9	40.9	58.6	> 100	44.4
N#C/C(=C1\OC(=N)C(c2ccc(Cl)cc2Cl)C1=O)c1ccc(Cl)cc1Cl (centres undefined)				> 100		> 100		> 100		> 100		> 100				> 100		> 100	> 100	
C=C1C=CC2(Br)OC3CC(C)(Cl)C(Br)CC13C2(C)C (centres undefined)		48		> 100		28.5		> 100		56.2		56				77.1		54.4	61.9	
COc1ccc2nc3cc(Cl)ccc3c(N3CCN(c4ccnc(N5CCN(C)CC5)n4)CC3)c2c1	3.51	12.4	1.57	3.07	1.61	3.05	1.61	3.02	1.75	3.33	1.8	3.53	1.84	3.36	1.93	3.98	1.73	3.29		
Cc1nnc(N/N=C(/C(=O)C(C#N)c2ccc(Cl)cc2)C(C#N)c2ccc(Cl)cc2)n1N (centres undefined)		30.3		43.1				32.9		30.8		37.3				41		33.8		
COc1ccc(-c2c3c(N)c4c(nc3nc3c2c(C)nn3-c2ccccc2)CCCC4)cc1	14.1	29.3	3.88	15.9	2.15	5.48	3.22	16.4	4.32	15.1	3.05	11.8	4.72	16.4	2.82	11.4	6.75	24.3		
CC1CCC2(C)C(CC=C(C=O)C2(O)C=O)C12CO2 (centres undefined)		40.3		11		6.65		5.2		3.93		8.77				6.69		3.97	23.3	
Fc1ccc2nc(-c3nc(-c4ccccc4)n4ccccc34)[nH]c2c1	1.94	3.84	3.38	15.1	2	3.82	1.93	6.31	2.25	5.94	3.97	17.3	5.56	18.1	1.87	4.1	2.13	5.51		
C[P+]1(c2ccccc2)CCCCC1		> 100		> 100				> 100		> 100		> 100				> 100		> 100	> 100	
O=C(CO)C1CC2C=CC1C2 (centres undefined)		> 100		> 100		> 100		> 100		> 100		> 100				> 100		> 100	> 100	
C=CC[N+]1(CC)CCN=C1CCCCCCCCCCCCCCCCC (centres undefined)	0.53	1.75	1.2	2.63	0.294	1.15			1.19	2.52	0.499	1.71	0.659	2.02			0.816	2.04		
O=C(c1c(O)cc(O)cc1O)C1Cc2ccccc21 (centres undefined)		> 100		> 100		> 100		> 100		> 100		> 100				> 100				
O=S(=O)(NCCCNc1nccc(-c2c(-c3ccc(F)cc3)nc3sccn23)n1)c1ccc(F)cc1	24.8	> 100	7.8	> 100	5.55	> 100	3.53	26.7	4.61	> 100	33.2	> 100	10.8	> 100	4.56	> 100	20.3	> 100		
Cc1cc2c(c(=O)o1)C1=S(SC(c3ccccc3)=C1)S2 (centres undefined)		45.5				60.6		> 100		> 100		> 100		> 100		> 100		> 100		
Clc1ccc([I+]c2ccc(Cl)cc2Cl)c(Cl)c1	2.27	4.91	1.61	3.32	1.85	3.67	1.95	4.52	1.89	3.77	1.25	3.75	1.92	3.51	2.1	4.8	7.14	21.1		
CC(=O)N(O)c1ccc(/C=C/c2ccccc2)cc1	1.98	> 35.7	0.543	3.22	1.12	13.4	2.91	> 82.1	0.26	2.08	1.15	> 100	0.278	2.52	1.59	> 52.5	9.39	> 100		
O=C(CC(=O)c1ccccc1)C(=O)Nc1ccc(Cl)cc1		> 100		> 100		> 61.5		> 100		> 100		> 60.2				> 100		> 100	> 100	
N#CC1C(N)=NNC12Nc1ccccc1S2 (centres undefined)	30.3	> 100	23.4	> 100	11.5	35.9			20.1	53.3	31.2	> 100	15.6	55.3	13	61.1			60.9	15.4
CCc1ccccc1NC(=O)CC1NC(=O)CS1 (centres undefined)		> 100		> 100		> 100		> 100				> 100				> 100		> 100	> 100	
CC(=O)CC(=O)CCC(=O)Nc1cccc(C(F)(F)F)c1		> 100		> 100		> 100		> 100		> 100		> 100				> 100			> 100	
CC(C)N(Cc1ccc(F)cc1)c1ccc(CO)c(Cl)c1	1.14	17.6	0.245	2.02	0.0415	3.75	0.116	1.7	8.08	20.9	0.363	15.3	11.1	23.3	10.6	25	14	27.2		
O=C(c1ccco1)c1c(C(F)(F)F)n([O-])c2cc(F)c(F)cc2[n+]1=O	0.348	0.85	0.44	1.37	0.149	0.386			0.122	0.256		0.0132	0.238	0.727	0.412	1.33	0.416	2.58	1.26	0.57
Cn1nc(-c2ccccc2)c(C(=O)/C=C/c2ccc(Cl)cc2)c(N2CCOCC2)c1=O		33.7		19.7		3.96				17		21.5				26.2		7.64	27.1	
